Measurements as given in patent US20150011423A1, “MEANS AND METHODS FOR ASSESSING KIDNEY TOXICITY” (BASF SE, priority 2011, published 2015).
Marks after values point to notes of the source that are not given here.

Tested on: rats
Assay: 28-day repeated dose study in rats with mass spectrometry-based plasma metabolite profiling (GC-MS, LC-MS, SPE-LC-MS); treatment ratios versus control
Settings: plasma; for 4-Hydroxy-3-methoxyphenylglycol (HMPG), treatment ratio versus control / Cysteine, treatment ratio versus control / Isopalmitic acid (C16:0), treatment ratio versus control / Metanephrine, treatment ratio versus control / Normetanephrine, treatment ratio versus control: Table 2d glomerular-tubular defect
[1] = male rats, day 7, high dose, Table 2c glomerular-tubular defect
[2] = male rats, day 14, high dose, Table 2c glomerular-tubular defect
[3] = male rats, day 28, high dose, Table 2c glomerular-tubular defect
[4] = female rats, day 7, high dose, Table 4a inhibition of weak acid excretion
[5] = female rats, day 7, high dose, Table 4b inhibition of weak acid excretion
[6] = female rats, day 14, high dose, Table 4a inhibition of weak acid excretion
[7] = female rats, day 14, high dose, Table 4b inhibition of weak acid excretion
[8] = female rats, day 28, high dose, Table 4a inhibition of weak acid excretion
[9] = female rats, day 28, high dose, Table 4b inhibition of weak acid excretion
[10] = male rats, day 7, high dose, Table 4c inhibition of weak acid excretion
[11] = male rats, day 7, high dose, Table 4d inhibition of weak acid excretion
[12] = male rats, day 14, high dose, Table 4c inhibition of weak acid excretion
[13] = male rats, day 14, high dose, Table 4d inhibition of weak acid excretion
[14] = male rats, day 28, high dose, Table 4c inhibition of weak acid excretion
[15] = male rats, day 28, high dose, Table 4d inhibition of weak acid excretion

Tricresyl phosphate
Creatine, treatment ratio versus control [1]: 1.16 *
Creatinine, treatment ratio versus control [1]: 0.77^
Glycerol-3-phosphate, polar fraction, treatment ratio versus control [1]: 0.83 *
Lysophosphatidylcholine (C18:2), treatment ratio versus control [1]: 1.19^
Threonic acid, treatment ratio versus control [1]: 1.32 *
4-Hydroxy-3-methoxyphenylglycol (HMPG), treatment ratio versus control (male rats, day 7, high dose): 0.95^
Cysteine, treatment ratio versus control (male rats, day 7, high dose): 0.44 *
Isopalmitic acid (C16:0), treatment ratio versus control (male rats, day 7, high dose): 0.84 *
Metanephrine, treatment ratio versus control (male rats, day 7, high dose): 0.43 *
Normetanephrine, treatment ratio versus control (male rats, day 7, high dose): 0.74 *
Creatine, treatment ratio versus control [2]: 1.42 *
Creatinine, treatment ratio versus control [2]: 0.74^
Glycerol-3-phosphate, polar fraction, treatment ratio versus control [2]: 0.89^
Lysophosphatidylcholine (C18:2), treatment ratio versus control [2]: 1.27 *
Threonic acid, treatment ratio versus control [2]: 1.5 *
4-Hydroxy-3-methoxyphenylglycol (HMPG), treatment ratio versus control (male rats, day 14, high dose): 0.93 *
Cysteine, treatment ratio versus control (male rats, day 14, high dose): 0.51 *
Isopalmitic acid (C16:0), treatment ratio versus control (male rats, day 14, high dose): 0.76 *
Metanephrine, treatment ratio versus control (male rats, day 14, high dose): 0.74 *
Normetanephrine, treatment ratio versus control (male rats, day 14, high dose): 0.71 *
Creatine, treatment ratio versus control [3]: 1.11 *
Creatinine, treatment ratio versus control [3]: 0.78 *
Glycerol-3-phosphate, polar fraction, treatment ratio versus control [3]: 0.89^
Lysophosphatidylcholine (C18:2), treatment ratio versus control [3]: 1.15 *
Threonic acid, treatment ratio versus control [3]: 1.53 *
4-Hydroxy-3-methoxyphenylglycol (HMPG), treatment ratio versus control (male rats, day 28, high dose): 0.83 *
Cysteine, treatment ratio versus control (male rats, day 28, high dose): 0.55 *
Isopalmitic acid (C16:0), treatment ratio versus control (male rats, day 28, high dose): 0.62 *
Metanephrine, treatment ratio versus control (male rats, day 28, high dose): 0.76^
Normetanephrine, treatment ratio versus control (male rats, day 28, high dose): 1.03^

Cc1cc(Cl)ccc1OCC(=O)O [MCPA]
Glycerol, lipid fraction, treatment ratio versus control [4]: 1.69 *
Linoleic acid (C18:cis[9,12]2), treatment ratio versus control [4]: 1.66 *
Lysophosphatidylcholine (C18:2), treatment ratio versus control [4]: 1.38^
Phosphatidylcholine (C16:0, C16:0), treatment ratio versus control [4]: 1.52 *
Phosphatidylcholine (C16:0, C18:2), treatment ratio versus control [4]: 1.66 *
Phosphatidylcholine (C16:0, C20:5), treatment ratio versus control [4]: 2.03 *
Phosphatidylcholine (C16:1, C18:2), treatment ratio versus control [4]: 2.92 *
Phosphatidylcholine (C18:0, C18:1), treatment ratio versus control [4]: 1.57 *
Phosphatidylcholine (C18:1, C18:2), treatment ratio versus control [4]: 1.68^
gamma-Linolenic acid (C18:cis[6,9,12]3), treatment ratio versus control [4]: 4.23 *
Arginine, treatment ratio versus control [5]: 0.62 *
Indole-3-lactic acid, treatment ratio versus control [5]: 0.24 *
Ketoleucine, treatment ratio versus control [5]: 0.42 *
Proline, treatment ratio versus control [5]: 0.61 *
Tryptophan, treatment ratio versus control [5]: 0.17 *
trans-4-Hydroxyproline, treatment ratio versus control [5]: 0.57^
Glycerol, lipid fraction, treatment ratio versus control [6]: 1.38 *
Linoleic acid (C18:cis[9,12]2), treatment ratio versus control [6]: 1.36 *
Lysophosphatidylcholine (C18:2), treatment ratio versus control [6]: 1.45 *
Phosphatidylcholine (C16:0, C16:0), treatment ratio versus control [6]: 1.8 *
Phosphatidylcholine (C16:0, C18:2), treatment ratio versus control [6]: 1.82 *
Phosphatidylcholine (C16:0, C20:5), treatment ratio versus control [6]: 2.09 *
Phosphatidylcholine (C16:1, C18:2), treatment ratio versus control [6]: 2.88 *
Phosphatidylcholine (C18:0, C18:1), treatment ratio versus control [6]: 1.74 *
Phosphatidylcholine (C18:1, C18:2), treatment ratio versus control [6]: 2.12 *
gamma-Linolenic acid (C18:cis[6,9,12]3), treatment ratio versus control [6]: 2.93 *
Arginine, treatment ratio versus control [7]: 0.58 *
Indole-3-lactic acid, treatment ratio versus control [7]: 0.24 *
Ketoleucine, treatment ratio versus control [7]: 0.21 *
Proline, treatment ratio versus control [7]: 0.45 *
Tryptophan, treatment ratio versus control [7]: 0.18 *
trans-4-Hydroxyproline, treatment ratio versus control [7]: 0.47 *
Glycerol, lipid fraction, treatment ratio versus control [8]: 1.6 *
Linoleic acid (C18:cis[9,12]2), treatment ratio versus control [8]: 1.28 *
Lysophosphatidylcholine (C18:2), treatment ratio versus control [8]: 1.35 *
Phosphatidylcholine (C16:0, C16:0), treatment ratio versus control [8]: 1.78 *
Phosphatidylcholine (C16:0, C18:2), treatment ratio versus control [8]: 1.45 *
Phosphatidylcholine (C16:0, C20:5), treatment ratio versus control [8]: 1.61 *
Phosphatidylcholine (C16:1, C18:2), treatment ratio versus control [8]: 2.45 *
Phosphatidylcholine (C18:0, C18:1), treatment ratio versus control [8]: 1.56 *
Phosphatidylcholine (C18:1, C18:2), treatment ratio versus control [8]: 1.78 *
gamma-Linolenic acid (C18:cis[6,9,12]3), treatment ratio versus control [8]: 2.99 *
Arginine, treatment ratio versus control [9]: 0.58 *
Indole-3-lactic acid, treatment ratio versus control [9]: 0.23 *
Ketoleucine, treatment ratio versus control [9]: 0.15 *
Proline, treatment ratio versus control [9]: 0.42 *
Tryptophan, treatment ratio versus control [9]: 0.16 *
trans-4-Hydroxyproline, treatment ratio versus control [9]: 0.6 *
3-Indoxylsulfate, treatment ratio versus control [10]: 0.72^
Aspartate, treatment ratio versus control [10]: 0.58 *
Ceramide (d18:1, C24:0), treatment ratio versus control [10]: 1.2
Cholesterolester No 01, treatment ratio versus control [10]: 0.97^
Lysophosphatidylethanolamine (C22:5), treatment ratio versus control [10]: 1.16^
Phosphatidylcholine (C16:0, C20:5), treatment ratio versus control [10]: 1.73 *
gamma-Linolenic acid (C18:cis[6,9,12]3), treatment ratio versus control [10]: 1.69 *
Arachidonic acid (C20:cis[5,8,11,14]4), treatment ratio versus control [11]: 0.27 *
Arginine, treatment ratio versus control [11]: 0.72 *
Aspartate, treatment ratio versus control [11]: 0.58 *
Choline plasmalogen (C18, C20:4), treatment ratio versus control [11]: 0.64 *
Cytosine, treatment ratio versus control [11]: 0.63 *
Glucose, treatment ratio versus control [11]: 0.75 *
Indole-3-lactic acid, treatment ratio versus control [11]: 0.36 *
Lysine, treatment ratio versus control [11]: 0.4 *
Lysophosphatidylcholine (C18:0), treatment ratio versus control [11]: 0.81 *
Methionine, treatment ratio versus control [11]: 0.66 *
Nervonic acid (C24:cis[15]1), treatment ratio versus control [11]: 0.67 *
Phosphatidylcholine (C18:0, C20:4), treatment ratio versus control [11]: 0.36 *
Ribal, treatment ratio versus control [11]: 0.94 *
3-Indoxylsulfate, treatment ratio versus control [12]: 1.53 *
Aspartate, treatment ratio versus control [12]: 1.01^
Ceramide (d18:1, C24:0), treatment ratio versus control [12]: 2.39 *
Cholesterolester No 01, treatment ratio versus control [12]: 1.27 *
Lysophosphatidylethanolamine (C22:5), treatment ratio versus control [12]: 1.08^
Phosphatidylcholine (C16:0, C20:5), treatment ratio versus control [12]: 1.82 *
gamma-Linolenic acid (C18:cis[6,9,12]3), treatment ratio versus control [12]: 2.68 *
Arachidonic acid (C20:cis[5,8,11,14]4), treatment ratio versus control [13]: 0.42 *
Arginine, treatment ratio versus control [13]: 0.57 *
Aspartate, treatment ratio versus control [13]: 1.01^
Choline plasmalogen (C18, C20:4), treatment ratio versus control [13]: 0.76 *
Cytosine, treatment ratio versus control [13]: 0.63 *
Glucose, treatment ratio versus control [13]: 0.72 *
Indole-3-lactic acid, treatment ratio versus control [13]: 0.38
Lysine, treatment ratio versus control [13]: 0.3 *
Lysophosphatidylcholine (C18:0), treatment ratio versus control [13]: 0.83 *
Methionine, treatment ratio versus control [13]: 0.59 *
Nervonic acid (C24:cis[15]1), treatment ratio versus control [13]: 0.74 *
Phosphatidylcholine (C18:0, C20:4), treatment ratio versus control [13]: 0.55 *
Ribal, treatment ratio versus control [13]: 0.89 *
3-Indoxylsulfate, treatment ratio versus control [14]: 1.92 *
Aspartate, treatment ratio versus control [14]: 0.69^
Ceramide (d18:1, C24:0), treatment ratio versus control [14]: 1.72 *
Cholesterolester No 01, treatment ratio versus control [14]: 1.32 *
Lysophosphatidylethanolamine (C22:5), treatment ratio versus control [14]: 1.1
Phosphatidylcholine (C16:0, C20:5), treatment ratio versus control [14]: 2.11 *
gamma-Linolenic acid (C18:cis[6,9,12]3), treatment ratio versus control [14]: 2.54 *
Arachidonic acid (C20:cis[5,8,11,14]4), treatment ratio versus control [15]: 0.26 *
Arginine, treatment ratio versus control [15]: 0.68 *
Aspartate, treatment ratio versus control [15]: 0.69 *
Choline plasmalogen (C18, C20:4), treatment ratio versus control [15]: 0.45 *
Cytosine, treatment ratio versus control [15]: 0.6 *
Glucose, treatment ratio versus control [15]: 0.6 *
Indole-3-lactic acid, treatment ratio versus control [15]: 0.3 *
Lysine, treatment ratio versus control [15]: 0.33 *
Lysophosphatidylcholine (C18:0), treatment ratio versus control [15]: 0.73 *
Methionine, treatment ratio versus control [15]: 0.64 *
Nervonic acid (C24:cis[15]1), treatment ratio versus control [15]: 0.76 *
Phosphatidylcholine (C18:0, C20:4), treatment ratio versus control [15]: 0.24 *
Ribal, treatment ratio versus control [15]: 0.77 *
